Like-named read-outs stand apart in the source and are kept apart here.
What was measured:
[1] = target: Recombinant human HDAC1 (Homo sapiens, UniProt Q13547); assay: In vitro HDAC enzymatic assay, HDAC1; format: biochemical
[2] = target: Recombinant human HDAC2 (Homo sapiens, UniProt Q92769); assay: In vitro HDAC enzymatic assay, HDAC2; format: biochemical
[3] = target: T1, Recombinant human HDAC6 (Homo sapiens, UniProt Q9UBN7); assay: In vitro HDAC enzymatic assay, HDAC6; format: biochemical
T1 sequence (Q9UBN7 1-1215): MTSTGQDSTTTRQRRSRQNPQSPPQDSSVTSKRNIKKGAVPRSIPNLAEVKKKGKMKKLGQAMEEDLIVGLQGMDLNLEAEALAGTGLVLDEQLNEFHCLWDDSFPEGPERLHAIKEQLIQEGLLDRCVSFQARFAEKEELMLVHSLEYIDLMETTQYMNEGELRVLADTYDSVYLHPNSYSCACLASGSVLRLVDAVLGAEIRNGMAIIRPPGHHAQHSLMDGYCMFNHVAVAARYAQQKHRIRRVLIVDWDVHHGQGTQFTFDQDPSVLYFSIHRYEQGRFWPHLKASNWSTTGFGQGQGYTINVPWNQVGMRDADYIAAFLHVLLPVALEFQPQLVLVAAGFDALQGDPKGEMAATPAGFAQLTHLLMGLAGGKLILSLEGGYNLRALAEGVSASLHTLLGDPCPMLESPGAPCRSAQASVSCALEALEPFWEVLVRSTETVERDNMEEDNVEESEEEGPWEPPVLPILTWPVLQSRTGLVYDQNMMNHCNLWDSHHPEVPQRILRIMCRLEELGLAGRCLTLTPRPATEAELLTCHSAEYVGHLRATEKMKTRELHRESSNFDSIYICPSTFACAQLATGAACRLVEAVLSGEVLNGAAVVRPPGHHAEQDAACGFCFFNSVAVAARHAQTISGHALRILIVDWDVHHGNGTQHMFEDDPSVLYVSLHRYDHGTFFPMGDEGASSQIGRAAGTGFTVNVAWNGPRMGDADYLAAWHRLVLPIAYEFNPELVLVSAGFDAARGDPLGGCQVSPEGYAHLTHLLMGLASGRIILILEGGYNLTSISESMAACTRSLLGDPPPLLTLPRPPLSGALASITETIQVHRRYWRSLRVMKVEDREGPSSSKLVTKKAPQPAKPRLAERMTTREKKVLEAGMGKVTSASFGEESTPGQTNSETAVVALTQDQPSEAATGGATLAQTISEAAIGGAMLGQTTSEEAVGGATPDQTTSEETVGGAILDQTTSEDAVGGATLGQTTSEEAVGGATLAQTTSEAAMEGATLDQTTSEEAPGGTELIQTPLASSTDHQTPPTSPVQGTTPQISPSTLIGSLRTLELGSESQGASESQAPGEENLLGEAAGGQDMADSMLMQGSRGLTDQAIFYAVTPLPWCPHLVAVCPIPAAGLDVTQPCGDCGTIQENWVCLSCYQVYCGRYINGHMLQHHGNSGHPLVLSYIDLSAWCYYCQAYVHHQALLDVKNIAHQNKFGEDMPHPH

[4] = target: T2, recombinant human HDAC8 (Homo sapiens, UniProt Q9BY41); assay: In vitro HDAC8 homogenous fluorescence assay; format: biochemical
T2 sequence (Q9BY41 1-377): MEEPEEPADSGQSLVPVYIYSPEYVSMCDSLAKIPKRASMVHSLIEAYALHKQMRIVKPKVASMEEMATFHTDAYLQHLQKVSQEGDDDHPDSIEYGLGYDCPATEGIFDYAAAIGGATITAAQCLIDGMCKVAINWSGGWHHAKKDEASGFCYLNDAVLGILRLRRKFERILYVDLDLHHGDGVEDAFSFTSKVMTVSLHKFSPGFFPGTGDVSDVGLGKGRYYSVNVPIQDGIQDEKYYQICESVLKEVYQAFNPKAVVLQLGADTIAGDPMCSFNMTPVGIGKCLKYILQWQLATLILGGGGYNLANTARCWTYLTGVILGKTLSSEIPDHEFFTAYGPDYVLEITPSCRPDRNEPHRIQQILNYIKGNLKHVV

[5] = target: T3, Recombinant human HDAC11 (Homo sapiens, UniProt Q96DB2); assay: In vitro HDAC11 inhibition assay; format: biochemical
T3 sequence (Q96DB2 1-347): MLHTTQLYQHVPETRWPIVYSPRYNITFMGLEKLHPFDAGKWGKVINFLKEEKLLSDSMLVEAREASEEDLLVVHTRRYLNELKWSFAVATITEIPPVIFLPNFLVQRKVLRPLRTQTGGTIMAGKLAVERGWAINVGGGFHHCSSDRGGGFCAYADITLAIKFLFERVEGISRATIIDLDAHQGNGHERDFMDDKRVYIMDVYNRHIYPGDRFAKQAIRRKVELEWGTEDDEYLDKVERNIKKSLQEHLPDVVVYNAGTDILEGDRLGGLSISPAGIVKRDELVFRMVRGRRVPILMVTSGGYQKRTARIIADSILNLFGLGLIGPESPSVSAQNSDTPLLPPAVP

[6] = system: HEL cells; assay: Apoptosis induction, annexin-V/PI flow cytometry; format: cell-based, human; conditions: 24 h
[7] = target: Recombinant human HDAC3/NCOR1 (Homo sapiens, UniProt O15379); assay: In vitro HDAC enzymatic assay, HDAC3
Sequence of Recombinant human HDAC3/NCOR1 (O15379 whole entry): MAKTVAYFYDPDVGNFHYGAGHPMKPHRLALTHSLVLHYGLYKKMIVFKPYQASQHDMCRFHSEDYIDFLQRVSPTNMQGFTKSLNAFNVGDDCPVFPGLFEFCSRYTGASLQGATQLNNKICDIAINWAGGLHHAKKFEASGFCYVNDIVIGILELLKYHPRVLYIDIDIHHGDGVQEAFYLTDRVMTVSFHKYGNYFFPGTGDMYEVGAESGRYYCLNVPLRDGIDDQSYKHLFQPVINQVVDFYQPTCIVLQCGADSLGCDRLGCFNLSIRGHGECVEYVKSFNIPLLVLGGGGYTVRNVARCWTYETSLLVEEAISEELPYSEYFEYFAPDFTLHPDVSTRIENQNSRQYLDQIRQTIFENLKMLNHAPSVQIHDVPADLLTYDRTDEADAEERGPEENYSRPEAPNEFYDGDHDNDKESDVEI
Sequence of Recombinant human HDAC3/NCOR1 (O75376 395-489 partner limits assumed): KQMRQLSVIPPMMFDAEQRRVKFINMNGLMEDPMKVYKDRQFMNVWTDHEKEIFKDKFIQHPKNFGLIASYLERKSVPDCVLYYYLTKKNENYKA

Sequence of Recombinant human HDAC1 (Q13547 whole entry): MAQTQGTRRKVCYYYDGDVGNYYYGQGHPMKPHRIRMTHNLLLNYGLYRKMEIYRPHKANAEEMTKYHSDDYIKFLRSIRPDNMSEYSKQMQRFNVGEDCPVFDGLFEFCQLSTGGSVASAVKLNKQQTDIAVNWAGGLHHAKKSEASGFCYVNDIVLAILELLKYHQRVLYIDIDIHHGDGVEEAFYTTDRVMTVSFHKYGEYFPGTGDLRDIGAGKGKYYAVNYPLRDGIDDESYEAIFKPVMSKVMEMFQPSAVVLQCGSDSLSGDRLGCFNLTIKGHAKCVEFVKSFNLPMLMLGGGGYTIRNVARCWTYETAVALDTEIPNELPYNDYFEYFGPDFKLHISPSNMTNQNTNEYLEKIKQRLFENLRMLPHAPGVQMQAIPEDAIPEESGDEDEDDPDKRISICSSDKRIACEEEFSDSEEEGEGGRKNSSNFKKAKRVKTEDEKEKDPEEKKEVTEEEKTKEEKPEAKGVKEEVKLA
Sequence of Recombinant human HDAC2 (Q92769 whole entry): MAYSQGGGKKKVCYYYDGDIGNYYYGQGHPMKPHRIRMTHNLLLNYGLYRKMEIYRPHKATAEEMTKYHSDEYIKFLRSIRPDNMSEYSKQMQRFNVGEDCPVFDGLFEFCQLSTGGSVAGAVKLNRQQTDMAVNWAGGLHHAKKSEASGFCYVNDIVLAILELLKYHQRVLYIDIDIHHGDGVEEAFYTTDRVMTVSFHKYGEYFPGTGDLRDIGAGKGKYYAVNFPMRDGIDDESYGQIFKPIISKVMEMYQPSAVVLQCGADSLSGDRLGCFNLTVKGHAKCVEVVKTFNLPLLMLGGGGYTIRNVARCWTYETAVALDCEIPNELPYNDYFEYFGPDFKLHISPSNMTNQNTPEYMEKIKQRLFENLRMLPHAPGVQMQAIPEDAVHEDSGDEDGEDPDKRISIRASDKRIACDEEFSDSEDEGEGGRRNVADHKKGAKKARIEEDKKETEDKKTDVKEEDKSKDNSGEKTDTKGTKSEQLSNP

IC50 ([1]; HDAC1 IC50, Ac-RHKK(Acetyl)-AMC substrate, 37 °C) [nM]	IC50 ([1]; HDAC1 IC50, as stated in text) [nM]	IC50 [2] [nM]	IC50 [3] [nM]	fold more potent inhibitor of HDAC6 than KH9 and KH16 ([3]; from Table 1 IC50 values)	IC50 [4] [nM]	IC50 [5] [nM]	IC50 [7] [nM]	IC50 ([1]; read-out: HDAC1 IC50) [nM]	IC50 ([1]; read-out: HDAC1 IC50, Ac-RHKK(Acetyl)-AMC substrate, 37 °C) [nM]	IC50 ([2]; read-out: HDAC2 IC50, Ac-RHKK(Acetyl)-AMC substrate, 37 °C) [nM]	IC50 ([3]; read-out: HDAC6 IC50, Abz-SRGGK(thio-TFA)FFRR-NH2 substrate) [nM]	IC50 ([4]; read-out: HDAC8 IC50, ZMAL 10.5 μM, 90 min, 37 °C) [nM]	IC50 ([5]; read-out: HDAC11 IC50) [nM]	IC50 ([7]; read-out: HDAC3 IC50, Ac-RHKK(Acetyl)-AMC substrate, 37 °C) [nM]	SMILES	concentration at which apoptosis induction starts [6]
9.4 ± 0.5	9	26 ± 1	25 ± 1	at least 10 fold	49 ± 2	1000 ± 100	20 ± 1								Cl.Cn1cc(CN2CCN(c3ncc(C(=O)NO)cn3)CC2)c2ccccc21 [KH29, N-hydroxy-2-(4-((1-methyl-1H-indol-3-yl)methyl)piperazin-1-yl)pyrimidine-5-carboxamide Hydrochloride]	55 nM
								9	8.9 ± 0.5	22 ± 1	140 ± 10	110 ± 10	1500 ± 100	19 ± 1	COc1ccc(/C=C/CN2CCN(c3ncc(C(=O)NO)cn3)CC2)cc1.Cl [KH9, (E)-N-Hydroxy-2-(4-(3-(4-methoxyphenyl)allyl)piperazin-1-yl)pyrimidine-5-carboxamide Hydrchloride]	approximately 50 nM
